The target of the series is T1, αS aggregation (Homo sapiens, UniProt P37840).
T1 construct: made in house; host or cells: E. coli BL21(DE3)
As to the kind of experiment: SDS-PAGE gel shift assay of soluble and insoluble αS fractions. Format: biochemical. Particulars: for Total (αS, SDS-PAGE gel shift), Average: average of 3 trials. An excerpt: The inhibition of αS aggregation by NS41 was also confirmed by TEM images, which show an abundance (Supplementary Fig. 3a) and low amount (Supplementary Fig. 3b) of αS fibers in the absence and presence of NS41, respectively. We used SDS-PAGE (Sodium dodecyl sulfate polyacrylamide gel electrophoresis) as a complementary assay to validate ThT results and to further characterize the antagonist activity of the monopyridyls against αS aggregation. We used a total of four monopyridyls with varying antagonist activity against αS aggregation for the SDS-PAGE assay. The solutions of αS (±monopyridyls) were centrifuged and the soluble and insoluble fractions were subjected to SDS-PAGE analysis as reported earlier (Fig. 2d, Supplementary Fig. 4a, see details in methods section). The band intensities of the gels in SDS-PAGE assay were quantified using ImageJ software. In the absence of ligands, ~12% of αS was found in the soluble fraction and the rest was found in the insoluble fraction (Fig. 2d, Supplementary Fig. 4a, b). In the presence of NS41 at molar ratios of 1:1 and 2:1 (NS41:αS), 48% and 73% of αS protein were found in the soluble fraction, respectively, and the rest of αS protein was found in the insoluble fraction (Fig. 2d, Supplementary Fig. 4a, b). […] The antagonist activity of the monopyridyls corroborated well from both ThT and the SDS-PAGE assays (Fig. 2a–d, Supplementary Fig. 4a, b). The higher the antagonist activity of monopyridyls against αS aggregation, the lower the ThT intensity and the higher the amount of αS remained in the soluble fraction (Fig. 2a–d, Supplementary Fig. 4a, b). […] It is important to note that NS41 contains a carboxyl (COOH) functional group side chain. […] We have also shown in that work that the foldamer binds to the N-terminus of αS because of its negatively charged COOH functional group interaction with the positively charged lysine residues of αS[24]. […] Additionally, we have also shown that the OPs with the COOH functional group are very effective inhibitors of aggregation of other amyloid proteins that contain lysine amino acid via the formation of salt bridges[30]–[34].
An αS solution (100 µM) was prepared in PBS with or without ligands and shaken ([…], 37 °C) until the fluorescence plateaued, as observed using the ThT aggregation assay, indicative of the aggregation of αS as a control (four days for most experiments unless otherwise mentioned). The solutions were separated into soluble and insoluble fractions by centrifugation at 22,000 × g for 20 min. The fractions were diluted in 2×Laemmli protein sample loading buffer (Containing 2.1% SDS, Bio-rad, Hercules, CA), boiled at 95 °C for 5 min, and ran on a 12% Mini-PROTEAN precast protein gel (Bio-rad, Hercules, CA). The gel was visualized using ChemiDoc MP Imaging System (Bio-rad, Hercules, CA) and band intensity was quantified using Image Lab image acquisition and analysis software (Bio-rad, Hercules, CA). Densitometry values were averaged from three technical replicates and reported with the error bars representing their standard deviations.

Values joined by “and” are separate entries in the source; they are usually repeats but may differ in a detail not shown here. Equal values may be shown once.

Take `Cc1ccc(NC(=O)c2ccc(NC(=O)c3ccc([N+](=O)[O-])c(NCCc4c[nH]c5ccccc45)n3)c(NCC3CCCCC3)n2)c(OCC(=O)O)n1` [NS132]: for the setting “100 µM αS, four days, equimolar”, the “amount of αS in the insoluble fraction” value is 14% and 11%. The “Total (αS, SDS-PAGE gel shift), Average” value (NS132 0.2 eq.) is 1.493 and the “Total (αS, SDS-PAGE gel shift), Average” value (NS132 1.0 eq.) amounted to 1.161. The “Total (αS, SDS-PAGE gel shift), Trial 1-3” value by setting is: (NS132 0.2 eq., individual trials, Synuclein alone total ~1) 1.48 and 1.6 and 1.4; (NS132 1.0 eq., individual trials) 1.099 and 1.145 and 1.24. Besides, the “αS band intensity, Total, Average” value (sheet S7B) was found to be 99.9667. For the same molecule, under “sheet S7B, individual trials”, the “αS band intensity, Total” value was 92.4 and 101.3 and 106.2. Besides, the “distribution of αS between soluble and insoluble fraction, in words” value (substoichiometric ratio αS:ligand 1:0.5) is listed as “predominantly detected in the soluble fraction”.

The values are drawn from paper PMC11061149, “Protein mimetic 2D FAST rescues alpha synuclein aggregation mediated early and post disease Parkinson’s phenotypes” (Nature Communications, 2024).
